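Briefly, cells in 96-well plates were exposed to five compound concentrations for 48 h, and endpoints were estimated by linear interpolation. Here, GI50 denotes the concentration required for 50% inhibition of growth.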 The source made the active and inactive calls. Rule as the data show it: active = GI50 up to about 1.1 µM and inactive = higher.
How the values were obtained:
Experiment in all cases: growth of human tumour cells (NCI), 48 h
[1] = test system: SNB-75
[2] = test system: HCT-15
[3] = test system: SR
[4] = test system: MCF7
[5] = test system: NCI-H460
[6] = test system: PC-3
[7] = test system: SF-539
[8] = test system: SK-OV-3
[9] = test system: T47D
[10] = test system: HL-60
[11] = test system: HT-29
[12] = test system: DU-145
[13] = test system: Malme-3M
[14] = test system: SW-620
[15] = test system: KM12
[16] = test system: NCI-H522
[17] = test system: OVCAR-5
[18] = test system: SNB-19
[19] = test system: CAKI-1
[20] = test system: 786-0
[21] = test system: UACC-62
[22] = test system: NCI/ADR-RES
[23] = test system: A549
[24] = test system: NCI-H226
[25] = test system: UO-31
[26] = test system: K562
[27] = test system: MDA-N
[28] = test system: SK-MEL-5
[29] = test system: IGROV-1
[30] = test system: BT-549
[31] = test system: MDA-MB-435
[32] = test system: OVCAR-3
[33] = test system: ACHN
[34] = test system: M14
[35] = test system: UACC-257
[36] = test system: U-251
[37] = test system: SK-MEL-28
[38] = test system: SF-268
[39] = test system: TK-10
[40] = test system: MDA-MB-231
[41] = test system: HCT-116
[42] = test system: MOLT-4
[43] = test system: CCRF-CEM
[44] = test system: HOP-62
[45] = test system: NCI-H23
[46] = test system: A498
[47] = test system: SK-MEL-2
[48] = test system: SN12C
[49] = test system: Hs-578T
[50] = test system: OVCAR-8
[51] = test system: SF-295
[52] = test system: COLO 205
[53] = test system: OVCAR-4
[54] = test system: RXF 393
[55] = test system: LOX IMVI
[56] = test system: HOP-92
[57] = test system: RPMI-8226
[58] = test system: EKVX
[59] = test system: HCC 2998

Measured: GI50

O=C(O)c1cc(-c2ccc3cc(O)c(O)cc3c2)ccc1O
inactive: [1] 4.94 µM | [3] > 12.5 µM | [4] > 12.5 µM | [5] > 12.5 µM | [6] > 12.5 µM | [7] > 12.5 µM | [8] > 12.5 µM | [9] > 12.5 µM | [10] > 12.5 µM | [11] > 12.5 µM | [12] > 12.5 µM | [13] > 12.5 µM | [14] > 12.5 µM | [15] > 12.5 µM | [16] > 12.5 µM | [17] > 12.5 µM | [18] > 12.5 µM | [19] > 12.5 µM | [20] > 12.5 µM | [21] > 12.5 µM | [22] > 12.5 µM | [23] > 12.5 µM | [24] > 12.5 µM | [25] > 12.5 µM | [26] > 12.5 µM | [27] 3.88 µM | [28] > 12.5 µM | [29] > 12.5 µM | [30] > 12.5 µM | [31] 5.73 µM | [32] > 12.5 µM | [33] > 12.5 µM | [34] > 12.5 µM | [35] > 12.5 µM | [36] > 12.5 µM | [37] > 12.5 µM | [38] > 12.5 µM | [39] > 12.5 µM | [40] > 12.5 µM | [41] > 12.5 µM | [42] > 12.5 µM | [43] > 12.5 µM | [44] > 12.5 µM | [45] > 12.5 µM | [46] > 12.5 µM | [47] > 12.5 µM | [48] > 12.5 µM | [49] > 12.5 µM | [50] > 12.5 µM | [51] > 12.5 µM | [52] > 12.5 µM
> 12.5 µM: [2]

O=c1[nH]nc(-c2ccccc2)n1/N=C\CC/C=N\n1c(-c2ccccc2)n[nH]c1=O
inactive: [1] > 69.3 µM | [3] 34 µM | [4] 26.7 µM | [5] > 47.6 µM | [53] 52.4 µM | [6] 28.1 µM | [7] 27.4 µM | [8] 28.6 µM | [9] 30.8 µM | [10] 29.2 µM | [11] 19.4 µM | [12] > 59.2 µM | [13] 25.2 µM | [54] > 67.5 µM | [14] 32.2 µM | [15] 34.8 µM | [16] > 94.2 µM | [17] 60 µM | [18] 45.1 µM | [19] 49 µM | [20] 26.5 µM | [21] 17.6 µM | [22] 38.5 µM | [23] > 100 µM | [24] 24.5 µM | [25] > 67.6 µM | [55] 12.9 µM | [26] 31.1 µM | [27] 20 µM | [28] 21.6 µM | [29] > 49.9 µM | [56] 25.5 µM | [30] 19.2 µM | [31] 22.7 µM | [32] 20.7 µM | [33] 36.6 µM | [34] 20.6 µM | [35] > 82.2 µM | [36] 40.6 µM | [37] 23 µM | [38] 26.1 µM | [39] > 100 µM | [40] 29.2 µM | [41] 24.2 µM | [42] 20.1 µM | [43] > 10 µM | [44] > 52.4 µM | [45] 14.3 µM | [47] 20.2 µM | [48] 20.3 µM | [57] 25.3 µM | [49] 24.9 µM | [58] 44.3 µM | [50] 30.1 µM | [51] 47.3 µM | [59] 40.7 µM | [52] 55 µM
21.4 µM: [2]

CC(=O)NCCc1c[nH]c2ccc(Cl)cc12
inactive: [1] 33.4 µM | [3] > 100 µM | [4] > 100 µM | [5] > 100 µM | [53] > 100 µM | [6] > 100 µM | [7] > 100 µM | [8] > 100 µM | [9] > 100 µM | [10] > 100 µM | [11] > 100 µM | [12] > 100 µM | [13] > 100 µM | [54] > 100 µM | [14] > 100 µM | [15] > 100 µM | [16] 91 µM | [17] > 100 µM | [18] > 100 µM | [19] > 100 µM | [20] > 100 µM | [21] > 100 µM | [22] > 100 µM | [23] > 100 µM | [24] > 100 µM | [25] > 100 µM | [55] > 100 µM | [26] > 100 µM | [27] > 100 µM | [28] > 100 µM | [29] > 100 µM | [56] 79.8 µM | [30] 25 µM | [31] > 100 µM | [32] > 100 µM | [33] > 100 µM | [34] 90.2 µM | [35] > 100 µM | [36] > 100 µM | [37] > 100 µM | [38] > 100 µM | [39] > 100 µM | [40] > 100 µM | [41] > 100 µM | [42] > 100 µM | [43] 60.4 µM | [44] > 100 µM | [45] > 100 µM | [47] > 100 µM | [48] > 100 µM | [57] > 100 µM | [49] > 100 µM | [58] > 100 µM | [50] > 100 µM | [51] > 100 µM | [59] 74.8 µM | [52] > 100 µM
> 100 µM: [2]
